# Laboratory results: PMC10906037, “Highly Enantioselective Catalysis by Enzyme Encapsulated in Metal Azolate Frameworks with Micelle-Controlled Pore Sizes” (ACS Central Science, 2024)
# Biological target: T1, lipase CAL-B (Moesziomyces antarcticus, UniProt P41365)
# T1 sequence (P41365 26-342): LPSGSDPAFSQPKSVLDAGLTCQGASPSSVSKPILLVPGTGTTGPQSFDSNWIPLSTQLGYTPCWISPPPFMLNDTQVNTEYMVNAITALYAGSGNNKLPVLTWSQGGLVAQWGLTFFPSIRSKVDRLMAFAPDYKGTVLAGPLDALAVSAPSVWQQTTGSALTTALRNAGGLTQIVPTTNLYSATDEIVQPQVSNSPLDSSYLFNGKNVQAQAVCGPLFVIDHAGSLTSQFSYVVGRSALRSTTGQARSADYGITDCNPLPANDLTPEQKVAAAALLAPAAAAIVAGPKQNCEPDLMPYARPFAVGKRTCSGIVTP
# Experiment: kinetic resolution, yield
# Assay type: biochemical
# Conditions: free CAL-B; substrate not given
smiles,measurement,value
"CC(=O)O[C@H](C)c1cccc2ccccc12 [compound 8, product 8]","kinetic resolution, yield",it resulted in a notably lower yield in comparison to free CAL-B
